Measured values: patent US9745288B2, “Compounds and methods for treating cancer by inhibiting the urokinase receptor” (Indiana University Research and Technology Corporation, priority 2011, dated 2017)
Read-outs that look alike come from different tables or passages of the source.

What was measured:
[1] = tested on: MDA-MB-231 cells; experiment: MTT proliferation assay; type: cell-based, human; conditions: read-out: IC50 of cell proliferation (MTT)
Experimental: Proliferation Assay. The procedure consisted of culturing cells at 37° C. in 10% FBS-DMEM medium containing various amounts of compound. 5 mM compound stock in 100% DMSO was 1:50 diluted in medium, filtered, and serially diluted in 96-well plate. Then seeded cells were incubated for 3 days. Viable cells were quantified by MTT assay at absorbance of 570 and 630 nm.
FIGS. 4A-4D show inhibition of MDA-MB-231 proliferation and mechanism of cell killing. To gain insight into the mechanism by which these compounds are inhibiting growth, a flow cytometry analysis with annexin V-FITC and PI staining was performed. The level of apoptotic cells in MDA-MB-231 was assessed by the percentage of Annexin V-positive/PI-negative cells present after exposure of MDAMB-231 cells to increasing concentration of IPR-69 for 24 h (FIG. 4B). At a concentration of 50 μM, IPR-69 induced significant apoptosis as evidenced by a 51% and 21% increase in apoptotic cells (Annexin V positive/PI-negative) and necrotic cells (Annexin V-positive/PI-positive), respectively. […] At a concentration of 50 μM, 26% of cells were necrotic (Annexin V positive/PI-positive), a 22% increase over control. 46% of cells were apoptotic (Annexin V positive/PInegative), compared with 4% of control.

[2] = tested on: MMP-9; experiment: Gelatin zymography of MDA-MB-231 conditioned medium; type: cell-based, human
Experimental: Gelatin Zymography. MDA-MB-231 cells were treated with different concentrations of uPAR compounds in serum free medium for 24 h, the conditioned medium were collected, concentrated by Amicon Ultra centrifugal filter units (Millipore, #UFC500324), proteins were normalized and electrophoresed on sodium dodecyl sulfate (SDS)-polyacrylamide gels (10%) containing 1 mg/mL gelatin. After electrophoresis, the gel was washed twice in 50 mM Tris-HCl (pH 7.6) containing 5 mM CaCl2 and 2.5% Triton X-100 for 30 minutes at room temperature and incubated in buffer that contained 50 mM Tris-HCl (pH 7.6), 200 mM NaCl, 10 mM CaCl2 at 37° C. for 36 h. Then, the gels were stained with 0.05% Coomassie brilliant blue (CBB) and destained with 30% methanol in 10% acetic acid. Areas of gelatinolytic degradation appeared as transparent bands on the blue stained background of the gel. Data were quantified using Image J.
To degrade collagen within the ECM, malignant cells unleash a series of extracelullar proteases known as matrix metalloproteinases (MMPs).

[3] = molecular target: CYP2C9 (Homo sapiens, UniProt P11712); experiment: Fluorescence-based CYP2C9 inhibition assay; conditions: human
CYP2C9, sequence (P11712 whole entry): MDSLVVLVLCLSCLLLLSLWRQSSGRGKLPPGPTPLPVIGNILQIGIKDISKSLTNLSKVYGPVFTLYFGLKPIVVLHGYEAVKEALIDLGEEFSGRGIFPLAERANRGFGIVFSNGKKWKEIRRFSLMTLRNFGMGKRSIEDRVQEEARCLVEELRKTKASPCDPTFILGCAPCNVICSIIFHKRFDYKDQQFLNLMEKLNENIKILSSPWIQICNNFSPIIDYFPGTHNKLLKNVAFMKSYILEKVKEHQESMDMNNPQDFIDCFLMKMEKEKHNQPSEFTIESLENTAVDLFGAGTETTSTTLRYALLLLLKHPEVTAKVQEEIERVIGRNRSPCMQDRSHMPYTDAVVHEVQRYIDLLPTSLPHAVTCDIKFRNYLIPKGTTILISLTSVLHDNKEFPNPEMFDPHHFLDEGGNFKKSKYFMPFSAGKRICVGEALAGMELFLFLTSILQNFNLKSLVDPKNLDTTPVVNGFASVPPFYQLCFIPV
Experimental: CYP metabolism was measured using a fluorescence-based assay designed by Cohen et al.,^41 recently implemented by Invitrogen (Carlsbad, Calif.).

[4] = tested on: TMD-231 cells; experiment: TMD-231 mammary fat pad xenograft, tumor growth and lung metastasis; type: in vivo
Excerpt: Mouse Xenograft Studies. NOD/SCID mice were obtained from the on-site breeding colony maintained by the In Vivo Therapeutics Core at the Indiana University Simon Cancer Center (IUSM, Indianapolis, Ind.) and maintained in pathogen-free conditions within the laboratory animal resources center (LARC) at the Indiana University School of Medicine according to an approved protocol by the Institutional animal care and use committee (IACUC) committee.
For metastasis studies, m.f.p. tumors were allowed to grow to approximately 100 mm^3 mice. Mice were assigned to treatment group based on average tumor size/weight. Following a recovery period of two days, mice received treatment of investigational drug (n=15) or a PBS solvent control (n=15). After four weeks mice were euthanized, the lungs were resected, fixed in formalin solution, sectioned, and stained with hematoxylin and eosin (H&E) for analysis. […] Tumor volume were be calculated as Length*Width^2/2 in millimeters.
TMD-231 cells were inoculated into the mammary fat pad of female NOD/SCID mice. Dosing was initiated at day 18 post implantation. Animals were randomized and treated with vehicle or with IPR-69 by daily oral gavage at a dose of 150 mg/kg (n=11). Tumor volumes were determined by caliper measurements on a […], and calculated according to the formula (α2×β)/2, where α is the shorter and β is the longer of the two dimensions. Tumor volumes were determined by caliper measurements on a weekly basis. The study was conducted over a period of 68 days. […] Once the tumor volume reached 30 mm^3 to 50 mm^3, animals were randomized and treated with vehicle alone as control or 150 mg/kg IPR-69 three times a week for 10 weeks by oral gavage. Tumor volumes were determined by caliper measurements obtained weekly. Over the course of the study, several mice were sacrificed to determine whether breast tumor cells had metastasized to the lungs. At the end of the study, control and experimental animals were sacrificed and organs (lungs) were removed and evaluated for the presence of tumors. The number and size of metastasis in two to five fields per sample were calculated. […] Briefly, percentage of staining was categorized as “0” if there was no nuclear/cytoplasmic expression, “1” for up to 10% positive tumor nuclei/cells, “2” for 11-20% and until a maximum score of “10”. Intensity was scored as “1+,” “2+,” and “3+” for weak, moderate and strong staining respectively.

[5] = tested on: different signaling molecules; experiment: Western blot analysis of signaling; type: cell-based; conditions: n=1
Experimental: In light of the previously reported role of uPAR in signaling, the effect of IPR-993, IPR-737, IPR-81 and IPR-69 on signaling was studied by Western blot analysis (FIG. 23). A concentration-dependent study was carried out for IPR-737.

[6] = Homo sapiens, MDA-MB-231, MDA-MB-231

Compound CN(C)c1ccc(CNCCC(Cc2ccccc2)c2ccc3c(c2)OCO3)cc1 (racemic) [IPR-9, 4-(((3-(benzo[d][1,3]dioxol-5-yl)-4-phenylbutyl)amino)methyl)-N,Ndimethylaniline] has an IC50 [1, 6] of 6 µM.
With Cc1cc(C)cc(NC(=O)c2cnn(-c3ccc(C(C)C)cc3)c2C2CCNCC2)c1 [IPR-69, N-(3,5-dimethylphenyl)-1-(4-isopropylphenyl)-5-(piperidin-4-yl)-1H-pyrazole-4-carboxamide] the IC50 [1, 6] was 18 µM, the IC50 ([1]; MDA-MB-231) was 17 µM and the “MMP-9 activity in gelatin zymography” value [2] was “some inhibition of MMP-9”. The IC50 ([2]; estimated, read-out: IC50 for inhibition of MMP-9 activity) was 25 µM, the “inhibition of CYP2C9” value [3] was “little inhibition of CYP2C9” and the “treated mice with metastatic lesions of score >2” value ([4]; 150 mg/kg oral gavage) was 3. The “tumor volume at the end of the study” value ([4]; 150 mg/kg oral gavage, average, 68 days) was 779 mm^3, the “treated mice with signs of metastatic lesions in the lungs” value ([4]; 150 mg/kg oral gavage, n=11) was 3 out of 11 and the “metastasis to the lungs” value ([4]; compared with untreated mice) was “less extensive metastasis to the lungs”. For the same compound, the tolerability ([4]; doses as high as 150 mg/kg, mice) was “well tolerated” and the “effect on signaling molecules” value [5] was “did not seem to be much of an effect”.
